According to patent publication US8344177B2, “Albumin binding molecules and uses thereof” (Philochem AG, priority 2006, dated 2013):
Each block holds one compound with its values, some of them ahead of it.

Legend:
[1] = MRI analysis of major blood vessels of the brain; type: in vivo, C57/B16 mice; conditions: mice, 1.2 μmol i.v.
Procedure: All animal experiments were carried out in strict adherence to the Swiss law for animal protection. MR measurements were performed on a Bruker PharmaScan 47/16 MR system (Bruker BioSpin GmbH) operating at 200 MHz using a circular cryogenic surface coil for signal transmission and reception. Mice were anesthetized with 1.4-1.5% isoflurane in air:O2 (4:1). Scout scans were performed to asses the anatomy of the animal. The shortening effect of both contrast agents DTPA-Gd and 428-D-Lys-β-Ala-DTPA-Gd on the longitudinal blood relaxation time (T1) was investigated in two C57/B16 mice. For this purpose, transverse cine 2D images were acquired using the following sequence parameters: field of view (FOV): 19×19×0.5 mm3, matrix size: 128×128, flip angle: 15°, TE/TR: 3.0/14 ms, averages: 6, repetitions: 50, temporal resolution: 10.75 s, total scan time: 8 min 57 s. The inflowing blood was saturated by exciting a 4 mm thick slice (flip angle15°) cranial to the imaging plane. Contrast agents were injected into the tail vein after a baseline of twenty repetitions. Firstly, a dose of 1.2 μmol of DTPA-Gd and secondly, after a wait time of 30 min, a dose of 1.2 μmol of 428-D-Lys-β-Ala-DTPA-Gd was administered. The time course of the MR signal was analyzed in a large vessel and normalized to the baseline value for comparison.

[2] = Pharmacokinetic profiles of fluorescein and FAM derivatives in mouse (LC/MS/MS of plasma); type: in vivo, 129SvPas mice; conditions: for half-life: 129SvPas, mouse, in vivo, iv, 20 nmol
Procedure: In a further in vivo experiment, the pharmacokinetic properties of fluorescein, phenethylamine-FAM, 428-D-Lys-FAM, and 622-D-Lys-FAM were measured and compared. Clearance profiles for the four compounds differed distinctly (FIG. 14).
Pharmacokinetic analyses were performed under the Project Licenses 198/2005 of the Veterinaramt des Kantons Zürich (issued to Dario Neri). 129SvPas mice were injected into the tail vein with 20 nmol of fluorescein, Phenethylamine-FAM, 428-D-Lys-FAM, or 622-D-Lys-FAM dissolved in 100 μl of 100 mM Tris/HCl, 105 mM NaCl, pH 8.2 (2 mice each). 20-30 μl blood samples were taken from the vena saphena with EDTA coated capillaries (Sarstedt) 1, 5, 15, 30, 60, 120, 240, 360, 480 and 1440 minutes after injection and centrifuged. 5-10 μl of plasma were mixed with 40 μl of 0.1% trifluoroacetic acid and 200 μl of ethanol and incubated on ice for 1 hour. After one hour the samples were centrifuged to remove the precipitated proteins. The supernatant was dried under vacuum and subsequently redissolved in 50 μl of DMSO/H2O. 40 μl were injected into an LC/MS/MS system (Micromass Quattro micro API) and run on a linear gradient from in 0.1% HCOOH from 5% to 95% acetonitrile in ten minutes on a Waters XTerra MS C18 column ([…], 1×50 mm) while observing the daughter ions with m/z of 287.1 and 202.1 of the parent ion 333.1 for fluorescein, with m/z of 287.3 and 332.3 of the parent ion 480.2 for Phenethylamine-FAM, with m/z of 287.3, 377.2 and 505.2 of the parent ion 777.1 for 428-D-Lys-FAM, and with m/z of 287.3 and 505.4 of the parent ion 651.3 for 622-D-Lys-FAM. Comparing the area under the curve with a previously obtained dilution series of fluorescein and 428-D-Lys-FAM in plasma with identical sample preparation allowed the quantification of the molecules.

HSA = HSA (Homo sapiens, UniProt P02768); assay: Fluorescence polarisation with increasing amounts of HSA; type: binding; conditions: 100 nM compound, PBS, 1 h at 25° C., read-out: dissociation constant
Procedure: 100 nM of 428-D-Lys-FAM, 622-D-Lys-FAM and, for comparison, of fluorescein and of phenethylamine-FAM were incubated with increasing amounts of HSA in PBS for 1 h at 25° C. The fluorescence polarization was determined by excitation at 485 nm and measurement at 535 nm.

[3] = background, reference 2; cited from earlier work
[4] = Pharmacokinetic profile of 428-ε-Lys-α-NH-FITC vs. fluorescein in mice (LC/MS/MS of serum); parameters: species or system 129SV mice; conditions: 129SV, mouse, in vivo
Procedure: The pharmacokinetic properties of conjugates of the invention are evaluated by injection of both said conjugate and the corresponding unconjugated agent (i.e. the agent that has not been modified by a compound of the invention) into mice and subsequent sampling of the conjugate and agent concentrations. Conjugate and agent concentrations are determined by Liquid Chromatography/Mass Spectrometry/Mass Spectrometry (LC-MS/MS) according to techniques known in the art.
100 μl of a 170 μM solution of fluorescein and of 428-ε-Lys-α-NH-FITC were injected into 2 pairs of immunocompetent 129SV mice.

[5] = high doses, bolus injection; depending on the patient group; cited from earlier work
[6] = Fluorescein angiographic analysis of the retina (scanning-laser ophthalmoscopy); type: in vivo, C57BL/6 mice; conditions: mice, 50 nmol i.v.
Procedure: To obtain functional information on the imaging properties of 428-D-Lys-FAM, a fluorescein angiographic analysis of the retina was performed. Fluorescein and 428-D-Lys-FAM were injected i.v. into mice and pictures of the eye fundus taken at different time-points. The fluorescein angiographic pictures confirmed the results of the pharmacokinetic studies.
Scanning-laser opthalmoscopy imaging was performed with a Heidelberg Retina Angiograph (HRA I, Heidelberg Engineering, Germany), a confocal scanning-laser opthalmoscope, according to previously described procedures [see reference 39]. Briefly, wild-type C57BL/6 mice were anaesthetized with ketamine (66.7 mg/kg) and xylazine (11.7 mg./kg), and their pupils were dilated with tropicamide eye drops (Mydriaticum Stulln, Pharma Stulln, Germany). The HRA features two argon wavelengths (488 nm and 514 nm) in the short wavelength range and two infrared diode lasers (795 nm and 830 nm) in the long wavelength range. The laser wavelength of 488 nm was used for fluorescein angiography, with a barrier filter at 500 nm. Four mice each received either 50 nmol of fluorescein or 428-D-Lys-FAM dissolved in 100 μl of 100 mM Tris/HCl, 105 mM NaCl, pH 8.2 injected i.v. into the tail. […] In particular, the brightness value in this study was fixed so that the brightest image (428-D-Lys-FAM at 1 minute following injection) could be recorded without overexposure. […]

albumin = albumin (Homo sapiens, UniProt P02768); conditions: background statement; cited from earlier work
Sequence of albumin (P02768 25-609, species assumed): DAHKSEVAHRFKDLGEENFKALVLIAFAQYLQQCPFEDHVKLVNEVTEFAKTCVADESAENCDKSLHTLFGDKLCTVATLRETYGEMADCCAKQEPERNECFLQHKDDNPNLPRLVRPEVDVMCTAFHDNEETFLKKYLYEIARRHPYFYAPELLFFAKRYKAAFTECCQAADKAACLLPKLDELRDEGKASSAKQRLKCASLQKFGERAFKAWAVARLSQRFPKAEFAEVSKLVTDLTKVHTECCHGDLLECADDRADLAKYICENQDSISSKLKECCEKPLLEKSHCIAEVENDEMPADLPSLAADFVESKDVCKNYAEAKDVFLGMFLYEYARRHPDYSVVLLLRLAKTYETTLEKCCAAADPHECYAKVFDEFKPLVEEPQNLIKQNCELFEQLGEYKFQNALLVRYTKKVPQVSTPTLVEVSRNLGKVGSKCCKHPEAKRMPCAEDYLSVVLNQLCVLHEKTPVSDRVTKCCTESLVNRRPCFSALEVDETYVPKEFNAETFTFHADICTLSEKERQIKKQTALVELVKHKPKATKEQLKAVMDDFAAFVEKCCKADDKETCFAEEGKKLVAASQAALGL

Sequence of HSA (P02768 25-609): as the sequence (P02768 25-609, species assumed) above

SMILES: COc1cccc2c1C(=O)c1c(O)c3c(c(O)c1C2=O)C[C@@](O)(/C(CO)=N/NC(=O)CCCCCN1C(=O)C=CC1=O)C[C@@H]3O[C@H]1C[C@H](N)[C@H](O)[C@H](C)O1 [DOXO-EMCH]
maximum tolerated dose relative to unmodified doxorubicin [3]: 2-10 times

SMILES: C=CC1=C(C)/C(=C/c2[nH]c(Cc3[nH]c(/C=C4\NC(=O)C(C)=C4C=C)c(C)c3CCC(=O)O)c(CCC(=O)O)c2C)NC1=O [bilirubin]
affinity / dissociation constant to albumin (in words) (albumin): nanomolar affinity

More lines, main results first:

extravasation observed by MRI [1]: Rapid extravasation
SMILES: O=C([O-])CN(CCN(CC(=O)[O-])CC(=O)O)CCN(CC(=O)[O-])CC(=O)O.[Gd+3] [DTPA-Gd, Gadolinium (III)—diethyltriaminepentaacetic acid]

half-life ([2]; t1/2, α): 5 min | half-life ([2]; t1/2, β): 53 min | Kd (HSA): 17 µM
SMILES: O=C(NCCc1ccccc1)c1ccc2c(c1)C(=O)OC21c2ccc(O)cc2Oc2cc(O)ccc21 [phenethylamine-FAM]

half-life [4]: 12.5 min | half-life ([2]; t1/2 (monophasic profile)): 4.6 min | time after injection at which no longer detectable ([2]; mice, 20 nmol into the tail vein, plasma): 30 min | Kd (HSA): 76 µM
SMILES: O=C1OC2(c3ccc(O)cc3Oc3cc(O)ccc32)c2ccccc21 [fluorescein]
patients with nausea and vomit [5]: up to 20% | time after which staining of the blood vessels not detectable [6]: 20 min
